Source: patent US9346769B2, “Tetrazolones as inhibitors of fatty acid synthase” (Infinity Pharmaceuticals, Inc., priority 2010, dated 2016)
pIC50: −log10 of the molar value.

Molecular target: T1, human FASN (Homo sapiens, UniProt P49327)
T1 construct: was purified from SKBR3 cells using procedures modified from those in Jayakumar et al; endogenous in cells; host or cells: SKBR3 human breast cancer cells (ATCC); Endogenous enzyme purified by ammonium sulfate precipitation and a mono Q column
Test: FASN Scintillation Proximity Flashplate Assay
Assay type: biochemical
Details: human FASN purified from SKBR3 cells; unstarred symbols
Protocol: Human FASN protein (SEQ ID NO. 1) was purified from SKBR3 cells using procedures modified from those in Jayakumar et al. PNAS 1995, 92:8695-8699. SKBR3 cells were obtained from ATCC and grown in DMEM high glucose medium supplemented with 10% FBS, 1 μg/mL bovine pancreas insulin, 100 U/mL penicillin and 100 µg/mL streptomycin. The confluent cells were trypsinized and washed three times with PBS buffer before frozen in liquid N2 and stored at −80° C. Frozen cells were thawed on ice and resuspended in lysis buffer (25 mM Tris-HCl, pH 7.0, 15 mM NaCl, 1 mM EDTA, and 1 mM DTT) with protease inhibitors. The cells were lysed by sonication, and the cell debris was removed by centrifugation at 20,000 rpm for 30 min. To the supernatant, neutralized saturated ammonium sulfate solution was added to a final concentration of 35%. The solution was left on ice for 1 hr, and the precipitated proteins were harvested by centrifugation at 20,000 rpm for 30 min. The proteins were redissolved in lysis buffer without NaCl and loaded on a mono Q column. Bound proteins were eluted with a linear gradient of NaCl in lysis buffer. Each fraction was analyzed by SDS-PAGE and FASN NADPH consumption assay. The fractions containing FASN were pooled and concentrated to 2-3 mg/mL. Glycerol was added to 20%, and the protein was frozen in liquid N2 and stored at −80° C.
Acetyl-coenzyme A, malonyl-coenzyme A, NADPH, bovine gamma globulin, and ORLISTAT were purchased from Sigma (St. Louis, Mo.). Tris(2-carboxyethyl) phosphine hydrochloride (TCEP) was purchased from Pierce Biotechnologies (Rockford, Ill.). [^3H]-acetyl-coenzyme A was purchased from Moravek Biochemicals (Brea, CA). FlashPlate™ PLUS phospholipid 96-well scintillant coated microplates were purchased from Perkin Elmer Life and Analytical Sciences (Shelton, CT). The method of the FASN Scintillation Proximity FlashPlate assay is similar to that described in Weiss and Glickman Assay Drug Dev Technol 2003, 1:161-6. In a 96-well polypropylene microplate, a dilution series (typical concentrations 60 nM-1.0 mM) of test compounds were prepared in DMSO followed by a 20-fold dilution into FASN assay buffer (50 mM potassium phosphate, pH 7.0, 1.0 mM EDTA, 0.01% NP-40), of which 5.0 μL each was transferred to a FlashPlate® PLUS 96-well plate and mixed with 35 μL FASN assay buffer plus 0.5 mg/mL bovine gamma globulin and 1 mM TCEP. FASN protein (10 μL, 10 nM) was added per well, and the microplate was incubated at 37° C. for 30 min. 10 μL of 20 mM NADPH was added, and the reaction was initiated by addition of […] substrate mixture to final concentrations of 1 nM FASN, 100 μM acetyl-coenzyme A, 6 μCi [^3H]-acetyl-coenzyme A, 300 μM malonyl-coenzyme A, 2 mM NADPH, 0.5 mg/mL bovine gamma globulin, and 1 mM TCEP in a volume of 100 μL per well. Assay plates were incubated for 2 hr at 37° C. and the reaction was stopped with 2 μL of 2.5 mM stock solution of ORLISTAT in DMSO to ˜50 μM. The plates were read in a Wallac 1450 Microbeta Plus liquid scintillation counter (Perkin Elmer, Waltham, Mass.), and counts per minute (CPM) were collected over 2 min. Each inhibitor well CPM was compared to the maximum FASN enzyme activity (Max) CPM and the background (Min) CPM, as measured by omission of FASN enzyme in the background well. % Inhibition values were calculated, and curves were fitted by a four-parameter logistic function to yield IC50 values:
Compounds were assayed as inhibitors of human FASN using the above-described FASN Scintillation Proximity Flashplate Assay (IC50; nM) or FASN NADPH Consumption Assay (*) (IC50; nM). The corresponding activity of the isolated compound is also provided along with the measured mass (ES^+).

T1 sequence (P49327 whole entry): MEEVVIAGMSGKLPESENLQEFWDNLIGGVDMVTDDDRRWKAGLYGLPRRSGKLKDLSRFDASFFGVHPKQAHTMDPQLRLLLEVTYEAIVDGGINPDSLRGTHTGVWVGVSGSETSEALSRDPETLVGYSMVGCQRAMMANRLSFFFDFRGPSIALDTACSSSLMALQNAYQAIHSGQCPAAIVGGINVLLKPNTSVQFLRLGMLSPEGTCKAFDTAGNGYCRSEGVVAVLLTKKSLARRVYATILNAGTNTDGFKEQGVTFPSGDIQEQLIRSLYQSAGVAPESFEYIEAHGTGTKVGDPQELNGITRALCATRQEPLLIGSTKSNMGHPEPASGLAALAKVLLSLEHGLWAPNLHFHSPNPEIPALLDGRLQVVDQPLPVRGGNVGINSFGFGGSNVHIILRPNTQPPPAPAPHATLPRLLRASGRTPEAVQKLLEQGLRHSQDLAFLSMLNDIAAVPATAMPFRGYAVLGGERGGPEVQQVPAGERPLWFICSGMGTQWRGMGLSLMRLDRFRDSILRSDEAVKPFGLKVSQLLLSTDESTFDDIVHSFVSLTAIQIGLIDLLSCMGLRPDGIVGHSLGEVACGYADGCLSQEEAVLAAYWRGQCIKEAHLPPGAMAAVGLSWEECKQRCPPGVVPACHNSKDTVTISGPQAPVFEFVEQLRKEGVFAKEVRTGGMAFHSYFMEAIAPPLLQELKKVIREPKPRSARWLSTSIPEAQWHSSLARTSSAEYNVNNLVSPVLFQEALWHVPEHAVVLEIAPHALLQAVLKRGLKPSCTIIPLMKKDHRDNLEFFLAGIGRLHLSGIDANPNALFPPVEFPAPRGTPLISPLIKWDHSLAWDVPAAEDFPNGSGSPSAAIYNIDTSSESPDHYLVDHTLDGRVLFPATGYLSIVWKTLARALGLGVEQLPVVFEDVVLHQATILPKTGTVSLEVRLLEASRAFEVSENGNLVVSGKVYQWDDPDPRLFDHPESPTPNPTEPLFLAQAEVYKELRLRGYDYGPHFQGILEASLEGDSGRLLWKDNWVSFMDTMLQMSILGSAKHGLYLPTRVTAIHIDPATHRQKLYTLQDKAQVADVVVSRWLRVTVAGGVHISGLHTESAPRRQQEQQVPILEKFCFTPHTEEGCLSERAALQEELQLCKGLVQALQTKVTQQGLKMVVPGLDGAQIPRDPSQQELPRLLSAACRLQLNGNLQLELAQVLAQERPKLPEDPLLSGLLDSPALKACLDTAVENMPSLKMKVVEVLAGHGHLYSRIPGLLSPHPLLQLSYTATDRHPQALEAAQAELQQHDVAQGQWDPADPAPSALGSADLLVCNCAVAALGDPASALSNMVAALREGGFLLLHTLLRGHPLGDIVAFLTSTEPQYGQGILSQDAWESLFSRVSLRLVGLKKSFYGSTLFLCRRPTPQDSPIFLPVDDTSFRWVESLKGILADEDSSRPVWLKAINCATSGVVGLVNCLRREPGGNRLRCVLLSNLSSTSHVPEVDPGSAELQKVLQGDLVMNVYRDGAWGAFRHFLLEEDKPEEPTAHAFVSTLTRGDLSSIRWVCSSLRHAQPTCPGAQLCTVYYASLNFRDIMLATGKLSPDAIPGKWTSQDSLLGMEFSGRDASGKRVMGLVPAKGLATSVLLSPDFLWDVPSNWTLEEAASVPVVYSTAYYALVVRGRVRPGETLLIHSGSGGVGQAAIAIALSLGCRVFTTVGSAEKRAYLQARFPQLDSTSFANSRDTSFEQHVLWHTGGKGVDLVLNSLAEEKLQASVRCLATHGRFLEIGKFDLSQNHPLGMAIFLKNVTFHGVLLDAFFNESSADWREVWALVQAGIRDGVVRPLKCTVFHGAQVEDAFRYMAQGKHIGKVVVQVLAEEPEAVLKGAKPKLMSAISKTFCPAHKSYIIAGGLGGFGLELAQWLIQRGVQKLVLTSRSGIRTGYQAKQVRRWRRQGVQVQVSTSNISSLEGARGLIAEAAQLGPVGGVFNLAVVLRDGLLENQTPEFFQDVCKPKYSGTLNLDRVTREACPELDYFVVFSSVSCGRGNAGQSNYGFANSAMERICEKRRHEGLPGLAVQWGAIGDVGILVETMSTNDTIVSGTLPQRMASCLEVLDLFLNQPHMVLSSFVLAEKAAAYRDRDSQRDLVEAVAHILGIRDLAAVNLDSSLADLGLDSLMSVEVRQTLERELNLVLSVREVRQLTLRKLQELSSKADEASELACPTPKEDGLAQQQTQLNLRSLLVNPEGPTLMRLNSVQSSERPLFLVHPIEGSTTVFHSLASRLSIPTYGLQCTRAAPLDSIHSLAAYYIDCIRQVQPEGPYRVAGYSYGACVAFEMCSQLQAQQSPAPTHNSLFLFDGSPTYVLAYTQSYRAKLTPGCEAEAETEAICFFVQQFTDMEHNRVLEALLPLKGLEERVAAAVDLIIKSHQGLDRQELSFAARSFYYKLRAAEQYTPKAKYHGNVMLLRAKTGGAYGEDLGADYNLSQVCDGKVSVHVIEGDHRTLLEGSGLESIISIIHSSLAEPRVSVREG

Compound	pIC50
COc1ccc(C(=O)O)cc1N(C(=O)n1nnn(-c2c(F)cccc2OC)c1=O)C(C)C	> 7.82
CN(C)N(C(=O)n1nnn(-c2ccccc2Cl)c1=O)C1=CCCCCC1	6.70 to 7.00
CCN(C(=O)n1nnn(-c2c(F)cccc2OC)c1=O)c1ccccc1OCCc1ccccc1	> 7.82
CCN(C(=O)n1nnn(-c2c(F)cccc2OC)c1=O)c1ccccc1	> 7.82
COc1ccc(N(C(=O)n2nnn(-c3c(F)cccc3C(=O)N(C)c3ccccc3)c2=O)C(C)C)cc1C(=O)O	7.00 to 7.82
CC(C)(C)OC(=O)N1CCN(c2ccc(N(C(=O)n3nnn(-c4c(F)cccc4F)c3=O)C3CCCCC3)cc2C(=O)O)CC1	> 7.82
CNC(=O)c1cc(N(C(=O)n2nnn(-c3c(F)cccc3F)c2=O)C2CCCCC2)ccc1OC	> 7.82
O=C(N(c1ccccc1)C1CCCCC1)n1nnn(-c2c(F)cccc2F)c1=O	> 7.82
O=C(N1Cc2cccc3cccc(c23)C1)n1nnn(-c2c(F)cccc2F)c1=O	7.00 to 7.82
CCN(C(=O)n1nnn(-c2c(F)cccc2OC)c1=O)c1cc(C(=O)O)ccc1OC(C)C	7.00 to 7.82
CCN(C(=O)n1nnn(-c2c(F)cccc2OC)c1=O)c1ccc(OC)c(C(=O)O)c1	7.00 to 7.82
CC(C)N(C(=O)n1nnn(-c2c(F)cccc2F)c1=O)c1ccc(N(S(C)(=O)=O)S(C)(=O)=O)c(C(=O)O)c1	> 7.82
CCN(C(=O)n1nnn(-c2c(F)cccc2F)c1=O)c1cc(C(=O)O)ccc1OCCc1ccccc1	> 7.82
COc1cccc(F)c1-n1nnn(C(=O)N(c2cccc(C(=O)O)c2)C(C)(C)C)c1=O	5.30 to 6.70
CCCCOc1ccc(C(=O)O)cc1N(CC)C(=O)n1nnn(-c2c(F)cccc2OC)c1=O	> 7.82
COc1ccc(C(=O)OCc2ccccc2)cc1N(C(=O)n1nnn(-c2c(F)cccc2OC(C)C)c1=O)C1CCCCC1	7.00 to 7.82
O=C(O)c1ccc(N(C(=O)n2nnn(-c3c(F)cccc3F)c2=O)C2CCCC2)c(Oc2ccccc2)c1	> 7.82
CCN(C(=O)n1nnn(-c2c(F)cccc2C(=O)NCc2ccccc2)c1=O)c1ccccc1	> 7.82
COc1cccc(F)c1-n1nnn(C(=O)N(c2ccccc2)[C@H]2CC[C@H](C(=O)O)CC2)c1=O	6.70 to 7.00
CCN(C(=O)n1nnn(-c2c(F)cccc2F)c1=O)c1ccc(C(=O)O)cc1Oc1ccccc1	> 7.82
COc1ccc(N(C(=O)n2nnn(-c3c(F)cccc3C(=O)N(C)Cc3ccccc3)c2=O)C(C)C)cc1C(=O)OCc1ccccc1	> 7.82
CN(C)N(C(=O)n1nnn(-c2ccccc2Br)c1=O)C1=CCCC1	7.00 to 7.82
CCCN(CC1CC1)C(=O)n1nnn(-c2ccccc2Cl)c1=O	5.30 to 6.70
COc1cccc(F)c1-n1nnn(C(=O)N(c2cccc(C(=O)OCc3ccccc3)c2)C2CC2)c1=O	> 7.82
O=C(O)COc1ccc(N(C(=O)n2nnn(-c3c(F)cccc3F)c2=O)C2CCCCC2)cc1	> 7.82
CCN1CCN(c2ccc(N(C(=O)n3nnn(-c4c(F)cccc4F)c3=O)C3CCCCC3)cc2C(=O)O)CC1	7.00 to 7.82

Compound	pIC50
COc1ccccc1-n1nnn(C(=O)N(c2ccc(Br)cc2)c2ccc(C(=O)O)cc2)c1=O	> 7.82
CCN(C(=O)n1nnn(-c2ccccc2Oc2ccccc2)c1=O)c1ccc(C(=O)O)cc1	> 7.82
COc1cccc(F)c1-n1nnn(C(=O)N(c2cc(C(=O)O)ccc2Oc2ccccc2)C(C)C)c1=O	> 7.82
CCN(C(=O)n1nnn(-c2c(F)cccc2F)c1=O)c1cc(C(=O)O)ccc1OC(C)C	7.00 to 7.82
COc1ccc(N(C(=O)n2nnn(-c3c(F)cccc3C(=O)N(C)C)c2=O)C(C)C)cc1C(=O)O	5.30 to 6.70
COc1cc(Oc2ccccc2)c(N(C(=O)n2nnn(-c3c(F)cccc3F)c2=O)C2CCCCC2)cc1C(=O)O	> 7.82
O=C(O)c1cc(N(C(=O)n2nnn(-c3c(F)cccc3F)c2=O)C2CCCCC2)ccc1OC(=O)N1CCOCC1	> 7.82
COCCOc1ccc(N(C(=O)n2nnn(-c3c(F)cccc3OCCOC)c2=O)C2CCCCC2)cc1C(=O)O	7.00 to 7.82
CCN(C(=O)n1nnn(-c2c(F)cccc2F)c1=O)c1ccc(C(=O)O)c(OC)c1	> 7.82
CC(C)N(C(=O)n1nnn(-c2c(F)cccc2F)c1=O)c1ccc(C(=O)OCc2ccccc2)cc1Oc1ccccc1	> 7.82
COc1ccc(C(=O)OCc2ccccc2)cc1N(C(=O)n1nnn(-c2c(F)cccc2OC)c1=O)C(C)C	7.00 to 7.82
COc1cccc(F)c1-n1nnn(C(=O)N(c2ccccc2)C2CCCC2)c1=O	> 7.82
COc1ccc(N(C(=O)n2nnn(-c3c(F)cccc3OC(C)C)c2=O)C2CCCCC2)cc1C(=O)O	> 7.82
COc1cc(N(C(=O)n2nnn(-c3c(F)cccc3F)c2=O)C2CCCCC2)ccc1C(=O)O	> 7.82
COc1cccc(F)c1-n1nnn(C(=O)N(c2ccccc2)C2CCOCC2)c1=O	7.00 to 7.82
CCN(C(=O)n1nnn(-c2c(Cl)cccc2Cl)c1=O)c1ccc(C(=O)OC)cc1	7.00 to 7.82
COc1ccc(N(C(=O)n2nnn(-c3ccccc3C#N)c2=O)C2CCCCC2)cc1C(=O)O	6.70 to 7.00
CCC(C)N(C(=O)n1nnn(-c2c(F)cccc2OC)c1=O)c1cccc(C(=O)O)c1 (centres unmarked)	> 7.82
CCN(C(=O)n1nnn(-c2c(F)cccc2F)c1=O)c1ccc(F)cc1F	> 7.82
COc1ccc(N(C(=O)n2nnn(-c3c(F)cccc3C(=O)N(C)Cc3ccccc3)c2=O)C(C)C)cc1C(=O)O	> 7.82
COc1ccc(N(C(=O)n2nnn(-c3c(F)cccc3C(=O)N3CCCCC3)c2=O)C(C)C)cc1C(=O)OCc1ccccc1	> 7.82
CCN(C(=O)n1nnn(-c2c(F)cccc2C(=O)N2CCOCC2)c1=O)c1ccccc1Oc1ccccc1	5.30 to 6.70
CCCCOc1ccc(C(=O)O)cc1N(CC)C(=O)n1nnn(-c2ccccc2OC)c1=O	> 7.82
COc1ccc(N(C(=O)n2nnn(-c3cccc4nsnc34)c2=O)C2CCCCC2)cc1C(=O)O	7.00 to 7.82
CC(C)N(C(=O)n1nnn(-c2c(F)cccc2F)c1=O)c1ccc(NC(=O)OC(C)(C)C)c(C(=O)OCc2ccccc2)c1	> 7.82
CCN(C(=O)n1nnn(-c2c(Cl)cccc2Cl)c1=O)c1ccc(OC)cc1	7.00 to 7.82

Molecular target: T1, human FASN
Test: FASN NADPH Consumption Assay
Assay type: biochemical
Details: human FASN purified from SKBR3 cells; starred symbols
Outline: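 Native human FASN purified from SKBR3 cells (60 nM final) preincubated 30 min at 37 °C with compound (2.4 nM–40 μM, 4% DMSO) in pH 7.0 phosphate buffer with 5 mM DTT. Reaction started with 0.2 mM NADPH, 50 μM butyryl-CoA, 0.5 mM malonyl-CoA; NADPH consumption followed kinetically by fluorescence (ex 340/em 460 nm); IC50 from logistic fit.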

Compound	pIC50
O=CNCC(=O)NCCCN(C(=O)n1nnn(-c2c(Cl)cccc2Cl)c1=O)C1CCCCC1	5.00 to 6.00
CCN(C(=O)n1nnn(-c2c(Cl)cccc2Cl)c1=O)c1ccc(C(=O)OCc2ccccc2)c(OC)c1	6.60 to 7.22
CCN(C(=O)n1nnn(-c2c(OC)cccc2OC)c1=O)c1ccc(C(=O)OCc2ccccc2)c(OC)c1	6.00 to 6.60
COc1ccc(CNC(=O)n2nnn(-c3c(Cl)cccc3Cl)c2=O)c(OC)c1	< 5.00
C/C=C(/C)c1ccc(N(C)C(=O)n2nnn(-c3ccccc3Cl)c2=O)cc1	6.00 to 6.60
CC(C)N(C(=O)n1nnn(-c2ccccc2Cl)c1=O)C(C)C	< 5.00
CN(CCc1ccccc1)C(=O)n1nnn(-c2ccccc2Cl)c1=O	< 5.00
CCN(C(=O)n1nnn(-c2c(Cl)cccc2Cl)c1=O)c1ccc(C(=O)OCc2ccc(OC)cc2)c(Cl)c1	6.60 to 7.22
CCN(C(=O)n1nnn(-c2c(Cl)cccc2Cl)c1=O)c1ccc(Cl)c(C(=O)OCc2ccccc2)c1	6.60 to 7.22
CCN(C(=O)n1nnn(-c2c(Cl)cccc2Cl)c1=O)C1CCCC(C(=O)NCC(N)=O)C1 (centres unmarked)	5.00 to 6.00
